Test results reported in PubChem BioAssay (NCI).
Where “and” joins values, the source holds several entries; their conditions need not be identical. Equal values may be shown once.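 All cell lines were grown in 96-well plates and treated with compound for 48 hours. Here, GI50 denotes the concentration required for 50% inhibition of growth. TGI: total growth inhibition.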

Key:
Assay in all cases: NCI anticancer screen, dose series, 48 h
DU-145 prostate = system: DU-145 prostate
EKVX NSCLC = system: EKVX NSCLC
HS 578T breast = system: HS 578T breast
HCT-116 colon = system: HCT-116 colon
A549 NSCLC = system: A549 NSCLC
UACC-62 melanoma = system: UACC-62 melanoma
HOP-62 NSCLC = system: HOP-62 NSCLC
TK-10 renal = system: TK-10 renal
T-47D breast = system: T-47D breast
SNB-75 CNS = system: SNB-75 CNS

Row | Compound | GI50 (DU-145 prostate) | TGI (DU-145 prostate) | GI50 (EKVX NSCLC) | TGI (EKVX NSCLC) | GI50 (HS 578T breast) | TGI (HS 578T breast) | GI50 (HCT-116 colon) | TGI (HCT-116 colon) | GI50 (A549 NSCLC) | TGI (A549 NSCLC) | GI50 (UACC-62 melanoma) | TGI (UACC-62 melanoma) | GI50 (HOP-62 NSCLC) | TGI (HOP-62 NSCLC) | GI50 (TK-10 renal) | TGI (TK-10 renal) | GI50 (T-47D breast) | TGI (T-47D breast) | GI50 (SNB-75 CNS) | TGI (SNB-75 CNS)
1 | O=Nc1ccc(O)c(=O)cc1 | 3.74 µM | 10.8 µM | 6.93 µM | 23.4 µM | 5.57 µM | > 44.4 µM | 0.961 µM | 3.49 µM | 12.3 µM | 68.9 µM | 2.01 µM | 5.68 µM | 7.45 µM | 23.2 µM | 1.82 µM | 9.18 µM | 1.76 µM | 4.28 µM | 3.77 µM | 17.2 µM
2 | COc1cc2c(cc1OC)[C@@H](Nc1ccc(C#N)cc1)C1COC(=O)[C@@H]1C2c1cc(OC)c(O)c(OC)c1 (stereo partly specified) |  | > 100 µM | 16.4 µM and 6.9 µM | 95 µM and 62.5 µM |  | 7.54 µM | 6.81 µM and 3.23 µM | 25.8 µM and > 100 µM | 0.147 µM and 0.1 µM | 7.31 µM and 4.95 µM | 0.372 µM and 0.167 µM | 12.9 µM and 2.68 µM | 0.0277 µM and 0.0929 µM | 0.325 µM and 0.492 µM | 2.49 µM and 1.06 µM | 6.73 µM and 7.87 µM |  | > 100 µM |  | 4 µM and 2.11 µM
3 | CC(N)C(Cc1ccc(Cl)cc1)c1ccc(Cl)cc1 (stereo unspecified) | 12.5 µM | 25.7 µM | 9.22 µM | 22.4 µM | 13.8 µM | 39.7 µM | 4.05 µM | 16.4 µM | 14 µM | 29.4 µM | 6.01 µM | 19.6 µM | 13.1 µM | 28.4 µM | 12.6 µM | 26.2 µM | 10.7 µM | 26 µM | 3.76 µM | 18.3 µM
